Results from patent publication US9193697B2, “Oxazole derivatives useful as modulators of FAAH” (MERCK SHARP & DOHME CORP., priority 2010, dated 2015).

Legend:
[1] = molecular target: T1, human FAAH (Fatty Acid Amide Hydrolase) (Homo sapiens (Human), UniProt O00519); assay: FAAH inhibition, human FAAH CHO whole cell format; assay type: cell-based
[2] = molecular target: T1, human FAAH (Fatty Acid Amide Hydrolase); assay: FAAH inhibition, human FAAH CHO cell lysate (AAMCA fluorescence); assay type: biochemical
Excerpt: To assist in assay development stable cell lines for human, murine and rat full length FAAH were developed. […] The full length FAAH was subcloned into the mammalian expression vector, pcDEF.neo, using XbaI and EcoRI restriction sites and used for stable cell line generation.
The full length murine FAAH was subcloned into the mammalian expression vector, pcDEFneo using either EcoRI (murine) or KpnI and EcoRI (rat) restriction sites. Chinese hamster ovary cells (CHO) were transfected following manufacturers protocol (AMAXA). Forty eight hours post transfection, cells were trypsinized and transferred to 96 well plates in Iscove's DMEM media supplemented with 2 mM Glutamine, 10% fetal calf serum, 1 mg/ml geneticin and HT Supplement (0.1 mM sodium hypoxanthine, 0.016 mM thymidine) in order to isolate single clones. […] Following removal of tissue culture media cells were dislodged following addition of Cellstripper (Mediatech, Inc. Manassas, Va.) and transferred to 96 well black clear bottom assay plate, centrifuged at 1,000 rpm for 3 mins and media removed and replaced with assay buffer (50 mM Tris pH8.0, 1 mM EDTA, 0.1% fatty acid free BSA). The reaction was initiated by addition of fluorescent substrate, AMC Arachidonoyl Amide (Cayman Chemical, Ann Arbor, Mich.) to 1 μM and reaction allowed to proceed for 2 hours at room temperature. Release of fluorescence was monitored in a CytoFluor Multiplate Reader.
CHO cells expressing FAAH were used to prepare either crude cell lysate or microsome fractions. To harvest cells, tissue culture media was decanted, the monolayer washed three times with Ca^++Mg^++ free PBS and cells recovered after 15 min in enzyme free dissociation media (Millipore Corp, Billerica, Mass.). Cells were collected by centrifuging at 2000 rpm for 15 min, and the cell pellet re-suspended with 50 mM HEPES (pH 7.4) containing 1 mM EDTA and the protease inhibitors aprotinin (1 mg/ml) and leupeptin (100 μM). The suspension was sonicated at 4° C. and the cell lysate recovered after centrifuging at 12,000×g (14,600 rpm, SS34 rotor) for 20 min at 4° C. to form a crude pellet of cell debris, nuclei, peroxisomes, lysosomes, and mitochondria; the supernatant or cell lysate was used for FAAH enzyme assay. In some eases, microsomes fractions enriched in FAAH were prepared by centrifuging the cell lysate further at 27,000 rpm (100,000×g) in SW28 rotor for 50 minutes at 4° C. The pellet containing FAAH-enriched microsomes was re-suspend in 50 mM HEPES, (pH 7.4) 1 mM EDTA, and any remaining DNA sheared by passage of material through a 23 gauge needle and aliquots of enzyme were store at −80° C. prior to use.
Assays are performed on either cell lysate or microsome fractions prepared as described or in whole cell format employing either the fluorescent substrate AAMCA (Cayman chemical, Ann Arbor, Mich.,) or ^3H-anandamide ([ETHANOLAMINE-1-3H] American Radiolabeled Chemicals; 1 mCi/ml). […] AAMCA substrate was used to achieve a final concentration of 1 μM and reaction allowed to proceed at room temperature for 1-3 hours. […] Whole cell assay is conducted with cells harvested after rinsing tissue culture flasks three times with Ca^++Mg^++ free PBS, incubating for 10 min in Enzyme free dissociation media and centrifuging for 5 minutes at 1,000 rpm in table top centrifuge. Cells are resuspended in assay buffer at desired cell number in (4×10^4 cells/assay in 96-well format; 1×10^4 cells/assay in 384-well format) and assayed as described.
Alternatively, assays are performed using anandamide [ethanolamine 1-^3H] (specific activity of 10 Ci/mmol) diluted with cold anandamide to achieve a final assay concentration of 1 μM anandamide (˜50,000 cpm). Enzyme (CHO cell lysate, brain or liver homogenate) is incubated in assay buffer (50 mM Phosphate, pH 8.0, 1 mM EDTA, 200 mM KCl, 0.2% glycerol, 0.1% fatty acid free BSA) with inhibitor at 25° C. for 30 minutes.

T1 sequence (O00519 whole entry): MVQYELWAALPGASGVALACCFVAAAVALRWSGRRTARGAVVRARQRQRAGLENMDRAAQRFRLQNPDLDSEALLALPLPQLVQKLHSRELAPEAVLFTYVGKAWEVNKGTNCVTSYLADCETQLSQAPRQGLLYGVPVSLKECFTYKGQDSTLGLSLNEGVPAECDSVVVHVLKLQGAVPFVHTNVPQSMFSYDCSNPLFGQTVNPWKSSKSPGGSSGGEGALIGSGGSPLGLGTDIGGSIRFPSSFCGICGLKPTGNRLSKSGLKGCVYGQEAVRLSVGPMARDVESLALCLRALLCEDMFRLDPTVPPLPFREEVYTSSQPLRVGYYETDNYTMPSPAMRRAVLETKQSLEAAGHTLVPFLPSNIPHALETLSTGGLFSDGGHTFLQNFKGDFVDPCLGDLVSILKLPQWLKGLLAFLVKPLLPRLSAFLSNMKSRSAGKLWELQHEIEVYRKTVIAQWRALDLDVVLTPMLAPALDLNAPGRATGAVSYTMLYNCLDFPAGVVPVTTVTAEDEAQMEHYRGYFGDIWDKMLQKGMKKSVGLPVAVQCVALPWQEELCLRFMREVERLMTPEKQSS

| IC50 [1] | IC50 [2] | Structure (SMILES) |
| --- | --- | --- |
| 847 nM | 320 nM | COC(=O)Cn1cc(-c2nc(C3CCOCC3)oc2Sc2ccc(Cl)cc2)cn1 [Example B5.13, methyl (4-{5-[(4-chlorophenyl)sulfanyl]-2-(tetrahydro-2H-pyran-4-yl)-1,3-oxazol-4-yl}-1H-pyrazol-1-yl)acetate] |
| 737 nM | 146 nM | Clc1ccc(Sc2oc(C3CCOCC3)nc2-c2cn[nH]c2)cc1 [Example B5.8, 5-[(4-chlorophenyl)sulfanyl]-4-(1H-pyrazol-4-yl)-2-(tetrahydro-2H-pyran-4-yl)-1,3-oxazole] |
| ≥ 10000 nM | 1420 nM | C[S+]([O-])c1ccc(-c2nc(C3CCNCC3)oc2Sc2ccc(Cl)cn2)cc1 (stereo not drawn) [Example A7.15, 4-{5-[(5-Chloropyridin-2-yl)sulfanyl]-4-[4-(methylsulfinyl)phenyl]-1,3-oxazol-2-yl}piperidinium chloride] |
| 436 nM | 61.7 nM | CCOC(=O)N1CCC(c2nc(-c3ccc([S+](C)[O-])cc3)c(Sc3ccc(Cl)cn3)o2)CC1 (stereo not drawn) [Example A7.23, ethyl 4-{5-[(5-chloropyridin-2-yl)sulfanyl]-4-[4-(methylsulfinyl)phenyl]-1,3-oxazol-2-yl}piperidine-1-carboxylate] |
| ≥ 10000 nM | 10000 nM | Clc1ccc(Sc2oc(C3CCOCC3)nc2C2CCNCC2)nc1 [Example A7.31, 5-chloro-2-{[4-(piperidin-4-yl)-2-(tetrahydro-2H-pyran-4-yl)-1,3-oxazol-5-yl]sulfanyl}pyridine] |
| 31 nM | 15.9 nM | C[S+]([O-])c1ccc(-c2nc(C3=CCOCC3)oc2Sc2ccc(Cl)cc2)cc1 (stereo not drawn) [Example C6.3, 5-[(4-chlorophenyl)sulfanyl]-2-(3,6-dihydro-2H-pyran-4-yl)-4-[4-(methylsulfinyl)phenyl]-1,3-oxazole] |
